Tested on: Mus musculus
Test: Topical antiinflammatory activity in mice, expressed as potency was determined
Format: functional

**Q.** With `CC(=O)OCC(=O)[C@@]12ON(Cc3ccccc3)C[C@@H]1CC1C3CCC4=CC(=O)C=CC4(C)[C@H]3C(O)CC12C` (some centres not stated) as the molecule, how does the Potency read?
**A.** 69

**Q.** For `CC(=O)OCC(=O)[C@@]12OC(C)(C)O[C@@H]1CC1C3CCC4=CC(=O)C=CC4(C)[C@H]3C(O)CC12C` (some centres not stated), which Potency is on record?
**A.** 102

**Q.** How did the Potency turn out when `CC(=O)OCC(=O)[C@@]12N=C(C)O[C@@H]1CC1C3CCC4=CC(=O)C=CC4(C)[C@@]3(F)C(O)CC12C` (some centres not stated) was run?
**A.** 104

**Q.** Which Potency does the source give for `CC(=O)OCC(=O)[C@@]12ON(Cc3ccccc3)C[C@@H]1CC1C3CCC4=CC(=O)C=CC4(C)[C@@]3(F)C(O)CC12C` (some centres not stated) here?
**A.** 62

**Q.** How did the Potency turn out when `CC(=O)OCC(=O)[C@@]12OC(C)(C)O[C@@H]1CC1C3CCC4=CC(=O)C=CC4(C)[C@@]3(F)C(O)CC12C` (some centres not stated) was run?
**A.** 117

**Q.** How did the Potency turn out when `CC(=O)OCC(=O)[C@@]12ON(C)C[C@@H]1CC1C3CCC4=CC(=O)C=CC4(C)[C@H]3C(O)CC12C` (some centres not stated) was run?
**A.** 75

**Q.** Which Potency does the source give for `CC(=O)OCC(=O)[C@@]12ON(C)C[C@@H]1CC1C3CCC4=CC(=O)C=CC4(C)[C@@]3(F)C(O)CC12C` (some centres not stated) here?
**A.** 156

Source: ChEMBL document CHEMBL1121992, “Synthesis and topical antiinflammatory activity of some steroidal [16 alpha, 17 alpha-d]Isoxazolidines” (1982)
